Source: US20250387415A1, “COMPOSITIONS OF COPPER COMPLEXES” (University of Lancashire, priority 2022, published 2025)

How the values were obtained:
[1] = Maximum copper complex content (solubility / encapsulation) of lipid formulations; format: physicochemical
[2] = Hydrated lipid systems (F02): transparency check method for maximum solubility / encapsulation; format: physicochemical
[3] = Solubility limit in cubosomes solution (F03 nanostructured dispersions), sedimentation; format: physicochemical
[4] = Centrifugation (200 rpm for 5 min) of F01 encapsulation mixtures; format: physicochemical; details: encapsulated mixture in MO or DU, visibly homogeneous at room temperature before
Description: It was in fact possible to add up to 126 mg of CuASP in 1 g of MO (as per F01-CuASP-MO-E) and up to about 130 mg in 1 g of DU (as per F01-CuASP-DU-E) (FIG. 4). […] With mere mixing by spatula the formulation was again homogeneous thereby encapsulating excess CuASP in the lipid phase.
With mere mixing by spatula the formulation was again homogeneous thereby encapsulating excess CuSL in the lipid phase.

[5] = background; cited from earlier work
[6] = background; cited from earlier work; remark: listed apart in the source
[7] = background; cited from earlier work; remark: listed apart in the source

solubility in lipids ([1]; non-aqueous lipids (MO, DU), F01): 1 mg/g
amount possible to add (encapsulation) in 1 g of DU ([1]; non-aqueous, in 1 g of DU (F01-...-DU-E)): up to 130 mg
amount possible to add (encapsulation) in 1 g of MO ([1]; non-aqueous, in 1 g of MO (F01-...-MO-E)): up to 126 mg
amount encapsulated in DU cubic phase ([2]; in 1.25 g cubic phase): 400 mg
amount encapsulated in DU cubic phase per g of lipid ([2]; viscous cubic phase in presence of water): About 533 mg per g of lipid
solubility limit in cubosomes solution per g of lipid ([3]; 10 g cubosomes (0.5 g lipid + 9.5 g of 0.5% F127 solution)): 50 mg/g of lipid
content that was sedimented in cubosomes solution ([3]; in 10 g cubosomes (0.5 g lipid + 9.5 g of 0.5% F127 solution in water)): 26 mg
sedimentation after centrifugation [4]: some part of the powder sedimented
Structure (SMILES): CC(=O)Oc1ccccc1C(=O)[O-].CC(=O)Oc1ccccc1C(=O)[O-].CC(=O)Oc1ccccc1C(=O)[O-].CC(=O)Oc1ccccc1C(=O)[O-].[Cu+2].[Cu+2] [CuASP, Copper (II) Aspirinate]
solubility in water [5]: poorly soluble in water
potency as an anti-inflammatory agent compared to aspirin [6]: more potent
irritancy to digestive track compared to aspirin [7]: less irritant
